Key:
[1] = system: A549 lung adenocarcinoma cells; test: A549 proliferation assay (Cell Titer Glo); type: cell-based; conditions: 7 days with compound, cell viability by Cell Titer Glo (ATP)
Procedure, shortened: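 A549 cells plated overnight, then treated with nine-point 3.3-fold dilutions (final top 10 μM, 0.2% DMSO) for 7 days at 37 °C, with media and compound refreshed on day 4. Viability measured as ATP by Cell Titer Glo luminescence; IC50 from 4-parameter fit normalized to DMSO control.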

[2] = target: PRMT5/MEP50 protein complex (Homo sapiens (Human), UniProt O14744); test: PRMT5 biochemical assay (3H-SAM methylation of H4(1-21) peptide, filter plate scintillation); conditions: 10 nM PRMT5/MEP50 complex, 200 nM H4(1-21) peptide, 1 uM SAM, 25 minute incubation at room temperature
Chain of PRMT5/MEP50 protein complex (O14744 other isoform, or with tags, fused parts or gaps): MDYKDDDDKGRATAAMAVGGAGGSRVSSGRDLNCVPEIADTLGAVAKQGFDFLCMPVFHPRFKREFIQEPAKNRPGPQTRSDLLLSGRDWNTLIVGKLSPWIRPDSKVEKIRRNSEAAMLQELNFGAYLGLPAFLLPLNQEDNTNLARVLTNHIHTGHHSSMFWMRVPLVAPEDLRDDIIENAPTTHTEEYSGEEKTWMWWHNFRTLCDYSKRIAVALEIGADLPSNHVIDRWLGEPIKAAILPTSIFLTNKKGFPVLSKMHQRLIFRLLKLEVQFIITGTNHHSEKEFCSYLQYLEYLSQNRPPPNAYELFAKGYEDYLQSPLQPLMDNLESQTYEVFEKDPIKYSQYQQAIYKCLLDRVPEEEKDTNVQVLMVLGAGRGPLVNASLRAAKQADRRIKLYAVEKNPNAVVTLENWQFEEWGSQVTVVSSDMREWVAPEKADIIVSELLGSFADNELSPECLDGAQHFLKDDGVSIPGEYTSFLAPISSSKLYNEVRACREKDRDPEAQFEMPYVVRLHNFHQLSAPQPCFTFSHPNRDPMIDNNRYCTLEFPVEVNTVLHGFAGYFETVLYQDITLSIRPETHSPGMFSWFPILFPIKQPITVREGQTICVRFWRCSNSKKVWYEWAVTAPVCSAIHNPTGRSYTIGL
Chain of PRMT5/MEP50 protein complex (Q9BQA1 whole entry partner): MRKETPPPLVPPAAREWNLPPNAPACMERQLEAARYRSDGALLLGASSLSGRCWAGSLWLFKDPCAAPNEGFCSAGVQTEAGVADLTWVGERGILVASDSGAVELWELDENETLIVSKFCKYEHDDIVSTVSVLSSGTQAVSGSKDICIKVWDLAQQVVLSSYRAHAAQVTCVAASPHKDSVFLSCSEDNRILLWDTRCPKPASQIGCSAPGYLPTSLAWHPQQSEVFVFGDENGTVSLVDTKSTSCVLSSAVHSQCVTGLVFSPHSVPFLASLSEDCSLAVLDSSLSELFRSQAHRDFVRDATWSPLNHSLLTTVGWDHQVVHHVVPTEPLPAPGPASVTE
Procedure, shortened: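 Human PRMT5/MEP50 complex (10 nM) methylating H4(1-21) peptide (200 nM) with 3H/unlabelled SAM (1 uM final) in pH 8.5 Tris buffer, 25 min at room temperature. Stopped with TCA, 3H-peptide captured on filter plates and scintillation-counted. IC50 from 4-parameter fit.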

**Q.** For `CC1CNCc2c(O[C@H]3C[C@@H](n4cc(F)c5c(N)ncnc54)[C@H](O)[C@@H]3O)cc(C(F)F)c(F)c21` (stereo partly drawn) [Example 215, (1S,2S,3R,5S)-3-(4-amino-5-fluoro-7H-pyrrolo[2,3-d]pyrimidin-7-yl)-5-((6-(difluoromethyl)-5-fluoro-4-methyl-1,2,3,4-tetrahydroisoquinolin-8-yl)oxy)cyclopentane-1,2-diol], which IC50 [1] is on record?
**A.** 1 nM

**Q.** And the IC50 [2]?
**A.** 1 nM

**Q.** Which results are given for `Nc1ncnc2c1c(F)cn2[C@@H]1C[C@H](Oc2cc(F)cc3c2CNCC3)[C@@H](O)[C@H]1O` [Example 107, (1S,2S,3R,5S)-3-(4-amino-5-fluoro-7H-pyrrolo[2,3-d]pyrimidin-7-yl)-5-((6-fluoro-1,2,3,4-tetrahydroisoquinolin-8-yl)oxy)cyclopentane-1,2-diol]?
**A.** IC50 ([1]; Homo sapiens, A549, 168 h): 991 nM; IC50 [2]: 1 nM

**Q.** Which IC50 [1] does the source give for `Cc1ncnc2c1ccn2[C@@H]1C[C@H](Oc2cc(C(F)F)c(F)c3c2CNCC3C)[C@@H](O)[C@H]1O` (stereo partly drawn) [Example 211, (1S,2S,3S,5R)-3-((6-(difluoromethyl)-5-fluoro-4-methyl-1,2,3,4-tetrahydroisoquinolin-8-yl)oxy)-5-(4-methyl-7H-pyrrolo[2,3-d]pyrimidin-7-yl)cyclopentane-1,2-diol] here?
**A.** 14 nM

**Q.** What about the IC50 [2] of the same molecule?
**A.** 1 nM

**Q.** Which results are given for `Cc1ncnc2c1ccn2[C@@H]1C[C@H]([C@H](O)c2cc(F)c(F)c(F)c2)[C@@H](O)[C@H]1O` [Example 13, (1S,2R,3R,5R)-3-[(S)-hydroxy(3,4,5-trifluorophenyl)methyl]-5-(4-methyl-7H-pyrrolo[2,3-d]pyrimidin-7-yl)cyclopentane-1,2-diol]?
**A.** IC50 ([1]; Homo sapiens, 168 h): 971 nM; IC50 [2]: 16 nM

**Q.** With `Cc1ncnc2c1c(F)cn2[C@@H]1C[C@H](Oc2cc(F)c(F)c3c2CNCC3)[C@@H](O)[C@H]1O` [Example 177, (1S,2S,3S,5R)-3-((5,6-difluoro-1,2,3,4-tetrahydroisoquinolin-8-yl)oxy)-5-(5-fluoro-4-methyl-7H-pyrrolo[2,3-d]pyrimidin-7-yl)cyclopentane-1,2-diol] as the molecule, how does the IC50 ([1]; Homo sapiens, A549, 168 h) read?
**A.** 2370 nM

**Q.** What about the IC50 [2] of the same molecule?
**A.** 4 nM

**Q.** `Cc1ncnc2c1ccn2[C@@H]1C[C@H](Oc2cc(Cl)c(F)cc2[C@@H](C)N)[C@@H](O)[C@H]1O` [Example 140, (1S,2S,3S,5R)-3-(2-((R)-1-aminoethyl)-5-chloro-4-fluorophenoxy)-5-(4-methyl-7H-pyrrolo[2,3-d]pyrimidin-7-yl)cyclopentane-1,2-diol] was tested. Which IC50 ([1]; Homo sapiens, A549, 168 h) did it give?
**A.** 2380 nM

**Q.** What about the IC50 [2] of the same molecule?
**A.** 17 nM

**Q.** `Cc1ncnc2c1ccn2[C@@H]1C[C@H](Oc2cccc3c2CNCCO3)[C@@H](O)[C@H]1O` [Example 164, (1S,2S,3R,5S)-3-(4-methyl-7H-pyrrolo[2,3-d]pyrimidin-7-yl)-5-((2,3,4,5-tetrahydrobenzo[f][1,4]oxazepin-6-yl)oxy)cyclopentane-1,2-diol] was tested. Which IC50 ([1]; Homo sapiens, A549, 168 h) did it give?
**A.** 3860 nM

**Q.** What about the IC50 [2] of the same molecule?
**A.** 4 nM

**Q.** With `Cc1ncc2c(F)cn([C@@H]3C[C@H](Oc4cc(Cl)cc5c4CNCC5)[C@@H](O)[C@H]3O)c2n1` [Example 175, (1S,2S,3S,5R)-3-((6-chloro-1,2,3,4-tetrahydroisoquinolin-8-yl)oxy)-5-(5-fluoro-2-methyl-7H-pyrrolo[2,3-d]pyrimidin-7-yl)cyclopentane-1,2-diol] as the molecule, how does the IC50 ([1]; Homo sapiens, A549, 168 h) read?
**A.** 3230 nM

**Q.** And the IC50 [2]?
**A.** 5 nM

**Q.** Which IC50 ([1]; Homo sapiens, A549, 168 h) does the source give for `CN1CCc2cccc(O[C@H]3C[C@@H](n4cc(F)c5c(N)ncnc54)[C@H](O)[C@@H]3O)c2C1` [Example 114, (1S,2S,3R,5S)-3-(4-amino-5-fluoro-7H-pyrrolo[2,3-d]pyrimidin-7-yl)-5-((2-methyl-1,2,3,4-tetrahydroisoquinolin-8-yl)oxy)cyclopentane-1,2-diol] here?
**A.** 3940 nM

**Q.** What about the IC50 [2] of the same molecule?
**A.** 4 nM

**Q.** With `Cc1ncnc2c1ccn2[C@@H]1C[C@H](Oc2cccc3c2CNCC3)[C@@H](O)[C@H]1O` [Example 78, (1S,2S,3R,5S)-3-(4-methyl-7H-pyrrolo[2,3-d]pyrimidin-7-yl)-5-((1,2,3,4-tetrahydroisoquinolin-8-yl)oxy)cyclopentane-1,2-diol] as the molecule, how does the IC50 ([1]; Homo sapiens, A549, 168 h) read?
**A.** 1620 nM

**Q.** And the IC50 [2]?
**A.** 1 nM

**Q.** What does the source list for `Cc1ncnc2c1ccn2[C@@H]1C[C@H](Oc2cc(-c3cn[nH]c3)c(F)c3c2CNCC3)[C@@H](O)[C@H]1O` [Example 166, (1S,2S,3S,5R)-3-((5-fluoro-6-(1H-pyrazol-4-yl)-1,2,3,4-tetrahydroisoquinolin-8-yl)oxy)-5-(4-methyl-7H-pyrrolo[2,3-d]pyrimidin-7-yl)cyclopentane-1,2-diol]?
**A.** IC50 ([1]; Homo sapiens, A549, 168 h): 39 nM; IC50 [2]: 3 nM

**Q.** What does the source list for `Cc1ncnc2c1ccn2[C@@H]1C[C@H](Oc2cc(Br)c(F)c3c2CNCC3)[C@@H](O)[C@H]1O` [Example 94, (1S,2S,3S,5R)-3-((6-bromo-5-fluoro-1,2,3,4-tetrahydroisoquinolin-8-yl)oxy)-5-(4-methyl-7H-pyrrolo[2,3-d]pyrimidin-7-yl)cyclopentane-1,2-diol]?
**A.** IC50 ([1]; Homo sapiens, A549, 168 h): 115 nM; IC50 [2]: 1 nM

**Q.** With `Cc1cc2cccc(O[C@H]3C[C@@H](n4ccc5c(C)ncnc54)[C@H](O)[C@@H]3O)c2cn1` [Example 169, (1S,2S,3R,5S)-3-(4-methyl-7H-pyrrolo[2,3-d]pyrimidin-7-yl)-5-((3-methylisoquinolin-8-yl)oxy)cyclopentane-1,2-diol] as the molecule, how does the IC50 ([1]; Homo sapiens, A549, 168 h) read?
**A.** 743 nM

**Q.** And the IC50 [2]?
**A.** 37 nM

**Q.** For `Cc1ncnc2c1ccn2[C@@H]1C[C@H](Oc2ccc(Cl)c3c2CNCC3)[C@@H](O)[C@H]1O` [Example 86, (1S,2S,3S,5R)-3-((5-chloro-1,2,3,4-tetrahydroisoquinolin-8-yl)oxy)-5-(4-methyl-7H-pyrrolo[2,3-d]pyrimidin-7-yl)cyclopentane-1,2-diol], which IC50 ([1]; Homo sapiens, A549, 168 h) is on record?
**A.** 1840 nM

**Q.** What about the IC50 [2] of the same molecule?
**A.** 4 nM

**Q.** How did the IC50 ([1]; Homo sapiens, A549, 168 h) turn out when `Cc1ncnc2c1ccn2[C@@H]1C[C@H](Oc2ccc(F)cc2CN)[C@@H](O)[C@H]1O` [Example 66, (1S,2S,3S,5R)-3-(2-(aminomethyl)-4-fluorophenoxy)-5-(4-methyl-7H-pyrrolo[2,3-d]pyrimidin-7-yl)cyclopentane-1,2-diol] was run?
**A.** 6810 nM

**Q.** What about the IC50 [2] of the same molecule?
**A.** 4 nM

**Q.** `Cc1ncnc2c1ccn2[C@@H]1C[C@H](Oc2ccc(F)c3c2CNCC3)[C@@H](O)[C@H]1O` [Example 84, (1S,2S,3S,5R)-3-((5-fluoro-1,2,3,4-tetrahydroisoquinolin-8-yl)oxy)-5-(4-methyl-7H-pyrrolo[2,3-d]pyrimidin-7-yl)cyclopentane-1,2-diol] was tested. Which IC50 ([1]; Homo sapiens, A549, 168 h) did it give?
**A.** 500 nM

**Q.** What about the IC50 [2] of the same molecule?
**A.** 2 nM

**Q.** For `Nc1ncnc2c1c(Br)cn2[C@@H]1C[C@H](Oc2cc(F)c(F)c3c2CNCC3)[C@@H](O)[C@H]1O` [Example 125, (1S,2S,3R,5S)-3-(4-amino-5-bromo-7H-pyrrolo[2,3-d]pyrimidin-7-yl)-5-((5,6-difluoro-1,2,3,4-tetrahydroisoquinolin-8-yl)oxy)cyclopentane-1,2-diol], which IC50 ([1]; Homo sapiens, A549, 168 h) is on record?
**A.** 637 nM

**Q.** And the IC50 [2]?
**A.** 1 nM

**Q.** Which IC50 ([1]; Homo sapiens, 168 h) does the source give for `Cc1ncnc2c1ccn2[C@@H]1C[C@H]([C@H](O)c2ccc(F)c(Cl)c2)[C@@H](O)[C@H]1O` [Example 5, (1S,2R,3R,5R)-3-[(S)-(3-chloro-4-fluorophenyl) (hydroxy)methyl]-5-(4-methyl-7H-pyrrolo[2,3-d]pyrimidin-7-yl)cyclopentane-1,2-diol] here?
**A.** 932 nM

**Q.** What about the IC50 [2] of the same molecule?
**A.** 25 nM

**Q.** What does the source list for `Cc1ncnc2c1ccn2[C@@H]1C[C@H](Oc2ccc(Cl)cc2CCN)[C@@H](O)[C@H]1O` [Example 146, (1S,2S,3S,5R)-3-(2-(2-aminoethyl)-4-chlorophenoxy)-5-(4-methyl-7H-pyrrolo[2,3-d]pyrimidin-7-yl)cyclopentane-1,2-diol]?
**A.** IC50 ([1]; Homo sapiens, 168 h): 7070 nM; IC50 [2]: 27 nM
